Results: patent publication US12539292B2, “BRM targeting compounds and associated methods of use” (Arvinas Operations, Inc., priority 2018, dated 2026)
Blank lines part the entries; values can stand above or below the compound they belong to.

Molecular target: T1, BRM (Homo sapiens, UniProt P51531)
T1 construct: In-Cell Western Screen of BRM Degradation in SW1573 Cells; endogenous in cells; host or cells: SW1573
Experiment: In-cell Western screen of BRM degradation in SW1573 cells (Dmax and DC50)
Format: cell-based
Settings: BRM degradation, SW1573 cells; for DC50: read-out: DC50; for Dmax: tested at the top concentration of between 0.3 and 10 μM, read-out: Dmax (%) (% degraded)
Outline: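 SW1573 cells were treated overnight (18-20 hours) with compound at 0.1% final DMSO. They were then PFA-fixed, permeabilised with Triton X-100 and immunostained with 800 nm/680 nm secondary antibodies. BRM signal was quantified by LI-COR in-cell Western imaging to derive Dmax and DC50.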

T1 sequence (P51531 whole entry): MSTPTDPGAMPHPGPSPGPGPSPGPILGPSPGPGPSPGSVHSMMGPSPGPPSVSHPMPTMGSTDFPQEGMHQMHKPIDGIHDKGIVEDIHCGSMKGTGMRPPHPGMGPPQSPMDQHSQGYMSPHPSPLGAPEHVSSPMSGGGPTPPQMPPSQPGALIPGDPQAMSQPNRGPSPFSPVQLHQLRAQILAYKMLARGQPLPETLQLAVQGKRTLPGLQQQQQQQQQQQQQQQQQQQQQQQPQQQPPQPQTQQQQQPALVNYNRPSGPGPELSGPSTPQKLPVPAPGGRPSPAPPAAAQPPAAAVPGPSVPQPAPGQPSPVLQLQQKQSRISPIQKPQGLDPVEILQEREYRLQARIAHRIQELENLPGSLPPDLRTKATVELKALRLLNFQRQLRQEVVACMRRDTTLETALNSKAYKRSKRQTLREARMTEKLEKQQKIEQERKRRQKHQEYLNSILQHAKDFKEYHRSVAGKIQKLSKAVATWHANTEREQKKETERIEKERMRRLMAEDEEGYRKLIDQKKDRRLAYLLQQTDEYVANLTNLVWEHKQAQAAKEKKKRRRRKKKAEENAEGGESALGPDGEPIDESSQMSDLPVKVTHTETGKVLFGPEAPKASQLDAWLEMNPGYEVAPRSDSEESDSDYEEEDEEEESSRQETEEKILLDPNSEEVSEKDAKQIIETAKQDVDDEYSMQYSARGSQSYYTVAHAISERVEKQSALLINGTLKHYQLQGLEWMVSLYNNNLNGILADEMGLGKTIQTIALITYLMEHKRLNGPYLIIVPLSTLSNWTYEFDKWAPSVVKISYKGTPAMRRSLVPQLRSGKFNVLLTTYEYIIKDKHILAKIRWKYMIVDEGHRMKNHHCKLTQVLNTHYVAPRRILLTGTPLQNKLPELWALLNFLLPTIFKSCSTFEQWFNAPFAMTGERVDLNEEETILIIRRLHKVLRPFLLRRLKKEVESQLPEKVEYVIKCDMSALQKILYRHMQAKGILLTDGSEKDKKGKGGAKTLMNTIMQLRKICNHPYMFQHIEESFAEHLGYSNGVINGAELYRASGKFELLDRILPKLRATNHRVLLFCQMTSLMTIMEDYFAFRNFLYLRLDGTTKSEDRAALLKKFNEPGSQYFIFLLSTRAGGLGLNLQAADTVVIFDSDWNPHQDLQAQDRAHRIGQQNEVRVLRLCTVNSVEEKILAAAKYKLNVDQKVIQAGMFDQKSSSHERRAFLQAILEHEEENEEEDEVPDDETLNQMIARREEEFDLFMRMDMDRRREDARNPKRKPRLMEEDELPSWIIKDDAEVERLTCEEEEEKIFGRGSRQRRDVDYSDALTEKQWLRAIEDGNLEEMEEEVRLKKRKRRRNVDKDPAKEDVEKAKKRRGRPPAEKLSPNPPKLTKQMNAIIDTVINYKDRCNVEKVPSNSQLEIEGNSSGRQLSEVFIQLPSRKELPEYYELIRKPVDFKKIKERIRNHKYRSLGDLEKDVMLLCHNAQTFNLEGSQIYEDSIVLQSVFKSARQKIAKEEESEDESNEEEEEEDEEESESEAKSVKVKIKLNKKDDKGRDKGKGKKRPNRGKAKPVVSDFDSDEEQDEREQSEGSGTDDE

Compound: Cc1cnsc1-c1ccc([C@H](C)NC(=O)[C@@H]2C[C@@H](O)CN2C(=O)[C@@H](c2cc(OCCN3CCN(CCOc4cc(N5C6CCC5CN(c5cc(-c7ccccc7O)nnc5N)C6)ccn4)CC3)no2)C(C)C)cc1 [compound 266, (2S,4R)-1-((2R)-2-(3-(2-(4-(2-((4-(3-(3-amino-6-(2-hydroxyphenyl)pyridazin-4-yl)-3,8-diazabicyclo[3.2.1]octan-8-yl)pyridin-2-yl)oxy)ethyl)piperazin-1-yl)ethoxy)isoxazol-5-yl)-3-methylbutanoyl)-4-hydroxy-N-((S)-1-(4-(4-methylisothiazol-5-yl)phenyl)ethyl)pyrrolidine-2-carboxamide]
DC50: < 2.5 nM
Dmax: > 75%

Compound: Cc1ncsc1-c1ccc([C@@H](NC(=O)[C@@H]2C[C@@H](O)CN2C(=O)[C@H](c2cc(OCCN3CCC(O[C@H]4C[C@H](Oc5cc(N6C7CCC6CN(c6cc(-c8ccccc8O)nnc6N)C7)ccn5)C4)CC3)no2)C(C)C)C(F)F)cc1 [compound 267, (2S,4R)-1-((2S)-2-(3-(2-(4-((1r,3S)-3-((4-(3-(3-amino-6-(2-hydroxyphenyl)pyridazin-4-yl)-3,8-diazabicyclo[3.2.1]octan-8-yl)pyridin-2-yl)oxy)cyclobutoxy)piperidin-1-yl)ethoxy)isoxazol-5-yl)-3-methylbutanoyl)-N-((R)-2,2-difluoro-1-(4-(4-methylthiazol-5-yl)phenyl)ethyl)-4-hydroxypyrrolidine-2-carboxamide]
DC50: 2.5 to 10 nM
Dmax: > 75%

Compound: Cc1ncsc1-c1ccc([C@@H](NC(=O)[C@@H]2C[C@@H](O)CN2C(=O)[C@@H](c2cc(OCCN3CCC(O[C@H]4C[C@H](Oc5cc(N6C7CCC6CN(c6cc(-c8ccccc8O)nnc6N)C7)ccn5)C4)CC3)no2)C(C)C)C(F)F)cc1 [compound 268, (2S,4R)-1-((2R)-2-(3-(2-(4-((1r,3R)-3-((4-(3-(3-amino-6-(2-hydroxyphenyl)pyridazin-4-yl)-3,8-diazabicyclo[3.2.1]octan-8-yl)pyridin-2-yl)oxy)cyclobutoxy)piperidin-1-yl)ethoxy)isoxazol-5-yl)-3-methylbutanoyl)-N-((R)-2,2-difluoro-1-(4-(4-methylthiazol-5-yl)phenyl)ethyl)-4-hydroxypyrrolidine-2-carboxamide]
DC50: < 2.5 nM
Dmax: > 75%

Compound: Cc1ncsc1-c1ccc([C@H](C)NC(=O)[C@@H]2C[C@@H](O)CN2C(=O)[C@H](c2onc(OCCN3CCC(O[C@H]4C[C@H](Oc5cc(N6C7CCC6CN(c6cc(-c8ccccc8O)nnc6N)C7)ccn5)C4)CC3)c2F)C(C)C)cn1 [compound 269, (2S,4R)-1-((2S)-2-(3-(2-(4-((1r,3S)-3-((4-(3-(3-amino-6-(2-hydroxyphenyl)pyridazin-4-yl)-3,8-diazabicyclo[3.2.1]octan-8-yl)pyridin-2-yl)oxy)cyclobutoxy)piperidin-1-yl)ethoxy)-4-fluoroisoxazol-5-yl)-3-methylbutanoyl)-4-hydroxy-N-((S)-1-(6-(4-methylthiazol-5-yl)pyridin-3-yl)ethyl)pyrrolidine-2-carboxamide]
DC50: > 30 nM

Compound: Cc1ncsc1-c1ccc([C@H](C)NC(=O)[C@@H]2C[C@@H](O)CN2C(=O)[C@@H](c2onc(OCCN3CCC(O[C@H]4C[C@H](Oc5cc(N6C7CCC6CN(c6cc(-c8ccccc8O)nnc6N)C7)ccn5)C4)CC3)c2F)C(C)C)cn1 [compound 270, (2S,4R)-1-((2R)-2-(3-(2-(4-((1r,3R)-3-((4-(3-(3-amino-6-(2-hydroxyphenyl)pyridazin-4-yl)-3,8-diazabicyclo[3.2.1]octan-8-yl)pyridin-2-yl)oxy)cyclobutoxy)piperidin-1-yl)ethoxy)-4-fluoroisoxazol-5-yl)-3-methylbutanoyl)-4-hydroxy-N-((S)-1-(6-(4-methylthiazol-5-yl)pyridin-3-yl)ethyl)pyrrolidine-2-carboxamide]
DC50: < 2.5 nM
Dmax: > 75%

Compound: Cc1ncsc1-c1ccc([C@H](C)NC(=O)[C@@H]2C[C@@H](O)CN2C(=O)[C@H](c2cc(OCC(=O)N3CCC(O[C@H]4C[C@H](Oc5cc(N6C7CCC6CN(c6cc(-c8ccccc8O)nnc6N)C7)ccn5)C4)CC3)no2)C(C)C)cn1 [compound 271, (2S,4R)-1-((2S)-2-(3-(2-(4-((1r,3S)-3-((4-(3-(3-amino-6-(2-hydroxyphenyl)pyridazin-4-yl)-3,8-diazabicyclo[3.2.1]octan-8-yl)pyridin-2-yl)oxy)cyclobutoxy)piperidin-1-yl)-2-oxoethoxy)isoxazol-5-yl)-3-methylbutanoyl)-4-hydroxy-N-((S)-1-(6-(4-methylthiazol-5-yl)pyridin-3-yl)ethyl)pyrrolidine-2-carboxamide]
DC50: > 30 nM

DC50: > 30 nM
Compound: Cc1ncsc1-c1ccc([C@@H](COCC2CCOCC2)NC(=O)[C@@H]2C[C@@H](O)CN2C(=O)[C@H](c2cc(OCCN3CCN(CCOc4cc(N5C6CCC5CN(c5cc(-c7ccccc7O)nnc5N)C6)ccn4)CC3)no2)C(C)C)cc1 [compound 272, (2S,4R)-1-((2S)-2-(3-(2-(4-(2-((4-(3-(3-amino-6-(2-hydroxyphenyl)pyridazin-4-yl)-3,8-diazabicyclo[3.2.1]octan-8-yl)pyridin-2-yl)oxy)ethyl)piperazin-1-yl)ethoxy)isoxazol-5-yl)-3-methylbutanoyl)-4-hydroxy-N-((S)-1-(4-(4-methylthiazol-5-yl)phenyl)-2-((tetrahydro-2H-pyran-4-yl)methoxy)ethyl)pyrrolidine-2-carboxamide]

Compound: Cc1ncsc1-c1ccc([C@@H](COCC2CCOCC2)NC(=O)[C@@H]2C[C@@H](O)CN2C(=O)[C@@H](c2cc(OCCN3CCN(CCOc4cc(N5C6CCC5CN(c5cc(-c7ccccc7O)nnc5N)C6)ccn4)CC3)no2)C(C)C)cc1 [compound 273, (2S,4R)-1-((2R)-2-(3-(2-(4-(2-((4-(3-(3-amino-6-(2-hydroxyphenyl)pyridazin-4-yl)-3,8-diazabicyclo[3.2.1]octan-8-yl)pyridin-2-yl)oxy)ethyl)piperazin-1-yl)ethoxy)isoxazol-5-yl)-3-methylbutanoyl)-4-hydroxy-N-((S)-1-(4-(4-methylthiazol-5-yl)phenyl)-2-((tetrahydro-2H-pyran-4-yl)methoxy)ethyl)pyrrolidine-2-carboxamide]
DC50: < 2.5 nM
Dmax: > 75%

DC50: > 30 nM
Compound: Cc1cnnn1-c1ccc([C@H](C)NC(=O)[C@@H]2C[C@@H](O)CN2C(=O)[C@H](c2cc(OCCN3CCN(CCOc4cc(N5C6CCC5CN(c5cc(-c7ccccc7O)nnc5N)C6)ccn4)CC3)no2)C(C)C)cc1 [compound 274, (2S,4R)-1-((2S)-2-(3-(2-(4-(2-((4-(3-(3-amino-6-(2-hydroxyphenyl)pyridazin-4-yl)-3,8-diazabicyclo[3.2.1]octan-8-yl)pyridin-2-yl)oxy)ethyl)piperazin-1-yl)ethoxy)isoxazol-5-yl)-3-methylbutanoyl)-4-hydroxy-N-((S)-1-(4-(5-methyl-1H-1,2,3-triazol-1-yl)phenyl)ethyl)pyrrolidine-2-carboxamide]

Compound: Cc1cnnn1-c1ccc([C@H](C)NC(=O)[C@@H]2C[C@@H](O)CN2C(=O)[C@@H](c2cc(OCCN3CCN(CCOc4cc(N5C6CCC5CN(c5cc(-c7ccccc7O)nnc5N)C6)ccn4)CC3)no2)C(C)C)cc1 [compound 275, (2S,4R)-1-((2R)-2-(3-(2-(4-(2-((4-(3-(3-amino-6-(2-hydroxyphenyl)pyridazin-4-yl)-3,8-diazabicyclo[3.2.1]octan-8-yl)pyridin-2-yl)oxy)ethyl)piperazin-1-yl)ethoxy)isoxazol-5-yl)-3-methylbutanoyl)-4-hydroxy-N-((S)-1-(4-(5-methyl-1H-1,2,3-triazol-1-yl)phenyl)ethyl)pyrrolidine-2-carboxamide]
DC50: 10 to 30 nM
Dmax: > 75%

Compound: Cc1nccn1-c1ccc([C@H](C)NC(=O)[C@@H]2C[C@@H](O)CN2C(=O)[C@H](c2cc(OC/C=C/c3ccc(O[C@H]4C[C@H](Oc5cc(N6C7CCC6CN(c6cc(-c8ccccc8O)nnc6N)C7)ccn5)C4)cn3)no2)C(C)C)cc1 [compound 276, (2S,4R)-1-((2S)-2-(3-(((E)-3-(5-((1r,3S)-3-((4-(3-(3-amino-6-(2-hydroxyphenyl)pyridazin-4-yl)-3,8-diazabicyclo[3.2.1]octan-8-yl)pyridin-2-yl)oxy)cyclobutoxy)pyridin-2-yl)allyl)oxy)isoxazol-5-yl)-3-methylbutanoyl)-4-hydroxy-N-((S)-1-(4-(2-methyl-1H-imidazol-1-yl)phenyl)ethyl)pyrrolidine-2-carboxamide]
DC50: > 30 nM

Compound: Cc1nccn1-c1ccc([C@H](C)NC(=O)[C@@H]2C[C@@H](O)CN2C(=O)[C@@H](c2cc(OC/C=C/c3ccc(O[C@H]4C[C@H](Oc5cc(N6C7CCC6CN(c6cc(-c8ccccc8O)nnc6N)C7)ccn5)C4)cn3)no2)C(C)C)cc1 [compound 277, (2S,4R)-1-((2R)-2-(3-(((E)-3-(5-((1r,3R)-3-((4-(3-(3-amino-6-(2-hydroxyphenyl)pyridazin-4-yl)-3,8-diazabicyclo[3.2.1]octan-8-yl)pyridin-2-yl)oxy)cyclobutoxy)pyridin-2-yl)allyl)oxy)isoxazol-5-yl)-3-methylbutanoyl)-4-hydroxy-N-((S)-1-(4-(2-methyl-1H-imidazol-1-yl)phenyl)ethyl)pyrrolidine-2-carboxamide]
DC50: < 2.5 nM
Dmax: > 75%

Compound: COc1nc(-c2scnc2C)ccc1[C@H](C)NC(=O)[C@@H]1C[C@@H](O)CN1C(=O)[C@H](c1cc(OCCN2CCC(O[C@H]3C[C@H](Oc4cc(N5C6CCC5CN(c5cc(-c7ccccc7O)nnc5N)C6)ccn4)C3)CC2)no1)C(C)C [compound 278, (2S,4R)-1-((2S)-2-(3-(2-(4-((1r,3S)-3-((4-(3-(3-amino-6-(2-hydroxyphenyl)pyridazin-4-yl)-3,8-diazabicyclo[3.2.1]octan-8-yl)pyridin-2-yl)oxy)cyclobutoxy)piperidin-1-yl)ethoxy)isoxazol-5-yl)-3-methylbutanoyl)-4-hydroxy-N-((S)-1-(2-methoxy-6-(4-methylthiazol-5-yl)pyridin-3-yl)ethyl)pyrrolidine-2-carboxamide]
DC50: > 30 nM
